Measurements reported in paper PMC7539012, “Hyperphosphorylated tau aggregation and cytotoxicity modulators screen identified prescription drugs linked to Alzheimer's disease and cognitive functions” (Scientific Reports, 2020).
Structures can show the parent of a compound that is named as a salt.

The compounds below were run on T1, 1N4R p-tau (assay: p-tau aggregation modulator screen of 1280-compound library (ThS fluorescence net change over 16 h)). Details: not given.
T1 construct: made in house; host or cells: E. coli (PIMAX system)
Type: biochemical
Parameters: key to PTAI>2SD: *: PTAI>2SD; key to PTAI>3SD: *: PTAI>3SD
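For ThS net change in this document: 30 µM compound with 6 µM p-tau over 16 h.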

| Compound | ThS net change |
| --- | --- |
| Nc1ccc(C(=O)O)c(O)c1 [4-aminosalicylic acid] | 428 |
| Beta-Escin | 471 |
| CN(C)C/C=C(\c1ccc(Br)cc1)c1cccnc1.Cl.Cl.O [Zimelidine dihydrochloride monohydrate] | 325 |
| COc1cccc2c1C(=O)c1c(O)c3c(c(O)c1C2=O)C[C@@](O)(C(=O)CO)C[C@@H]3O[C@H]1C[C@H](N)[C@H](O)[C@H](C)O1 [Doxorubicin hydrochloride] | 249 |

Same assay, conditions: 1280-compound library screen; ThS fluorescence net change over 16 h

| Compound | ThS net change |
| --- | --- |
| COc1ccc2c(c1)c(CC(=O)O)c(C)n2C(=O)c1ccc(Cl)cc1 [Indomethacin] | 386 |
| CC[C@H](C)C(=O)O[C@H]1C[C@@H](C)C=C2C=C[C@H](C)[C@H](CC[C@@H]3C[C@@H](O)CC(=O)O3)[C@H]21 [Lovastatin] | 408 |
| Cl.O=C(O)/C=C/c1ccc(Cn2ccnc2)cc1 [Ozagrel hydrochloride] | 389 |
| CC(=O)Oc1ccc(C(c2ccc(OC(C)=O)cc2)c2ccccn2)cc1 [Bisacodyl] | 398 |
| CCCCC1C(=O)N(c2ccccc2)N(c2ccc(O)cc2)C1=O (stereo not drawn) [Oxyphenbutazone] | 398 |
| NC1CONC1=O (stereo in doubt) [(S)-(-)-Cycloserine] | 391 |
| Cc1nc2ccccn2c(=O)c1CCN1CCC(C(=O)c2ccc(F)cc2)CC1 [Pirenperone] | 388 |
| CCN(CC)C(=O)c1ccc(O)c(OC)c1 [Ethamivan] | 386 |
| CC(C)NNC(=O)c1ccncc1.O=P(O)(O)O [Iproniazide phosphate] | 401 |

Same assay, conditions: 1280-compound library screen; […]

| Compound | ThS net change |
| --- | --- |
| CC(C)(N)Cc1ccccc1.Cl [Phentermine hydrochloride] | 408 |
| CC(O)(P(=O)([O-])O)P(=O)([O-])O.[Na+].[Na+] [Etidronic acid, disodium salt] | 392 |
| N[C@@H](C(=O)N[C@@H]1C(=O)N2C(C(=O)O)=C(Cl)CS[C@H]12)c1ccccc1.O [Cefaclor hydrate] | 392 |
| CC(Oc1ccccc1)C(=O)N[C@@H]1C(=O)N2[C@@H]1SC(C)(C)[C@@H]2C(=O)[O-].[K+] (stereo partly drawn) [Phenethicillin potassium salt] | 387 |
| CC1(C)S[C@@H]2[C@H](NC(=O)[C@H](C(=O)O)c3ccsc3)C(=O)N2[C@H]1C(=O)O [Ticarcillin sodium] | 407 |
| CC(=O)OCC1=C(C(=O)O)N2C(=O)[C@@H](N)[C@H]2SC1 [Cephalosporanic acid, 7-amino] | 378 |

Same assay, conditions: flag: p-tau aggregation inhibitor, ThS net change more than 2 SD from mean

| Compound | PTAI>2SD |
| --- | --- |
| CCN(CC)CCNc1ccc(CO)c2sc3ccccc3c(=O)c12 [Hycanthone] | * |

Same assay, conditions: flag: p-tau aggregation inhibitor, ThS net change more than 3 SD from mean

| Compound | PTAI>3SD |
| --- | --- |
| Nc1ccc(/N=N/c2ccccc2)c(N)n1 [Phenazopyridine hydrochloride] | * |

Same assay, conditions: library screen, ThS fluorescence net change over 16 h with p-tau

| Compound | ThS net change |
| --- | --- |
| CN(C)CCCOc1nn(Cc2ccccc2)c2ccccc12 [Benzydamine hydrochloride] | 310 |
| CCN(CC)CCNc1ccc(CO)c2sc3ccccc3c(=O)c12 [Hycanthone] | 171 |
| Nc1ccc(/N=N/c2ccccc2)c(N)n1 [Phenazopyridine hydrochloride] | 12 |
| CO[C@H]1/C=C/O[C@@]2(C)Oc3c(C)c(O)c4c(c3C2=O)C2=NC3(CCN(CC(C)C)CC3)NC2=C(NC(=O)/C(C)=C\C=C\[C@H](C)[C@H](O)[C@@H](C)[C@@H](O)[C@@H](C)[C@H](OC(C)=O)[C@@H]1C)C4=O [Rifabutin] | 267 |
| CCOC(=O)c1ccc(OC(=O)CCCCCNC(=N)N)cc1.CS(=O)(=O)O [Gabexate mesilate] | 305 |

Same assay, conditions: p-tau aggregation modulator screen of 1280-compound library; ThS fluorescence net change

| Compound | ThS net change |
| --- | --- |
| Cc1ccccc1OCC(O)CO (stereo not drawn) [Mephenesin] | 350 |
| CNCCC(Oc1ccc(C(F)(F)F)cc1)c1ccccc1 (stereo not drawn) [Fluoxetine hydrochloride] | 370 |
| O=C(O)Cc1cc(I)c(Oc2ccc(O)c(I)c2)c(I)c1 | 369 |
| CC(=O)OCC(=O)[C@@]1(O)[C@H](C)C[C@H]2[C@@H]3CCC4=CC(=O)C=C[C@]4(C)[C@@]3(F)[C@@H](O)C[C@@]21C [Dexamethasone acetate] | 343 |
| Cc1cc(NS(=O)(=O)c2ccc(N)cc2)no1 [Sulfamethoxazole] | 376 |
| O=C1c2ccccc2S(=O)(=O)N1CCCCN1CCN(c2ncccn2)CC1 [Ipsapirone] | 374 |
| CC1(C)O[C@@H]2C[C@H]3[C@@H]4C[C@H](F)C5=CC(=O)CC[C@]5(C)[C@H]4[C@@H](O)C[C@]3(C)[C@]2(C(=O)CO)O1 [Flurandrenolide] | 377 |
| CC(C)NCC(O)COc1ccc(CCOCC2CC2)cc1 (stereo not drawn) [Betaxolol hydrochloride] | 373 |
| CC(CN(C)C)CN1c2ccccc2Sc2ccccc21.CC(CN(C)C)CN1c2ccccc2Sc2ccccc21.O=C(O)C(O)C(O)C(=O)O (stereo not drawn) [Trimeprazine tartrate] | 354 |
| CN(CCCN1c2ccccc2CCc2ccccc21)CC(=O)c1ccc(Cl)cc1 [Lofepramine] | 375 |
| CC(C)C(=O)Nc1ccc([N+](=O)[O-])c(C(F)(F)F)c1 [Flutamide] | 331 |
| C[C@]12C=CC(=O)C=C1CC[C@@H]1[C@@H]2C(=O)C[C@@]2(C)[C@H]1CC[C@]2(O)C(=O)CO [Prednisone] | 366 |
| CCc1cc(Cl)c(OC)c(C(=O)NC[C@@H]2CCCN2CC)c1O.Cl [S(-)Eticlopride hydrochloride] | 329 |

Same assay, conditions: p-tau aggregation modulator screen of 1280-compound library; […]

| Compound | ThS net change |
| --- | --- |
| Br.COc1ccc2c(c1)[C@]13CCCC[C@@H]1[C@H](C2)N(C)CC3.O | 372 |
| COc1cc2c(cc1OC)C(C)NCC2.Cl (stereo not drawn) | 359 |
| COP(=O)(OC)C(O)C(Cl)(Cl)Cl (stereo not drawn) [Trichlorfon] | 340 |
| Nc1ncnc2c1ncn2[C@@H]1O[C@H](COP(=O)(O)O)[C@@H](O)[C@H]1O.O [Adenosine 5'-monophosphate monohydrate] | 369 |

Same assay, conditions: p-tau aggregation modulator screen of the compound library, ThS fluorescence net change

| Compound | ThS net change |
| --- | --- |
| CCCCC(=O)N(Cc1ccc(-c2ccccc2-c2nnn[nH]2)cc1)[C@H](C(=O)O)C(C)C [Valsartan] | 417 |
| CC(C)(C)NC[C@H](O)c1ccc(O)c(CO)c1 [Levalbuterol hydrochloride] | 422 |
| CCOC(=O)[C@H](CCc1ccccc1)N[C@@H](C)C(=O)N1CCC[C@H]1C(=O)O [Enalapril maleate] | 2088 |
| O=C(O)CCc1nc(-c2ccccc2)c(-c2ccccc2)o1 [Oxaprozin] | 425 |
| CCC1(C)CC(=O)NC1=O (stereo not drawn) [Ethosuximide] | 433 |
| CC(C)(C)C(=O)OCOC(=O)[C@@H]1N2C(=O)[C@@H](/N=C/N3CCCCCC3)[C@H]2SC1(C)C [Pivmecillinam hydrochloride] | 423 |
| COc1ccc(CN2CCN(C(c3ccc(F)cc3)c3ccc(F)cc3)CC2)c(OC)c1OC.Cl [Lomerizine hydrochloride] | 458 |
| Nc1ccccc1S(N)(=O)=O [2-Aminobenzenesulfonamide] | 430 |
| CCC(=O)O[C@@H](O[P@](=O)(CCCCc1ccccc1)CC(=O)N1C[C@H](C2CCCCC2)C[C@H]1C(=O)O)C(C)C [Fosinopril] | 587 |
| COc1ccc(-c2ccc3cc(C(=O)O)ccc3c2)cc1C12CC3CC(CC(C3)C1)C2 [Adapalene] | 477 |
| CCCc1nc2c(C)cc(-c3nc4ccccc4n3C)cc2n1Cc1ccc(-c2ccccc2C(=O)O)cc1 [Telmisartan] | 454 |
| O=c1[nH]cc(F)c(=O)[nH]1 [5-fluorouracil] | 471 |
| O=c1[nH]c(=O)n([C@H]2C[C@H](O)[C@@H](CO)O2)cc1C(F)(F)F [Trifluridine] | 463 |
| CCN[C@H]1C[C@H](C)S(=O)(=O)c2sc(S(N)(=O)=O)cc21 [Dorzolamide hydrochloride] | 463 |
